The source made the active and inactive calls. The rule behind the calls is not given here.
Key:
[1] = Toxicity in BALB/c nude mouse xenografted with human NCI-H3122 cells assessed as effect on visceral spleen morphology at 75 mg/kg, IG administered once daily for 18 days and measured after 12 hrs of last dose by H and E staining based analysis; format: organism-based; details: in vivo, po, 444 h
[2] = molecular target: Cyclin-dependent kinase 6 (Homo sapiens) (UniProt Q00534); assay: Inhibition of CDK6 (unknown origin) at 0.05 uM by LANCE Ultra TR-FRET assay relative to control
[3] = molecular target: T1, Protein cereblon/ALK tyrosine kinase receptor/Echinoderm microtubule-associated protein-like 4 (Homo sapiens) (UniProt Q9UM73+Q9HC35+Q96SW2); assay: PROTAC activity at CRBN/EML4-ALK in human L02 cells assessed as reduction in ALK protein level at 1 to 20 uM incubated for 24 hrs in presence of GSH by Western blot analysis; format: cell-based; details: dose 1-20 µM
[4] = Toxicity in BALB/c nude mouse xenografted with human NCI-H3122 cells assessed as effect on lung function at 75 mg/kg, IG administered once daily for 18 days by H and E staining based assay; format: organism-based; details: in vivo, po, 432 h, time 18 day
[5] = system: NCI-H3122; assay: Induction of apoptosis in human NCI-H3122 cells assessed as early apoptotic cells at 1.25 uM incubated for 48 hrs by Annexin V-FITC/propidium iodide staining based flow cytometric analysis (reference value: 0.71%); format: functional
[6] = Toxicity in BALB/c nude mouse xenografted with human NCI-H3122 cells assessed as effect on spleen function at 75 mg/kg, IG administered once daily for 18 days by H and E staining based assay; format: organism-based; details: in vivo, po, 432 h, time 18 day
[7] = system: NCI-H3122; assay: Inhibition of colony formation in human NCI-H3122 cells assessed as reduction in number of colonies measured after 10 days by crystal violet staining based microscopic analysis; format: functional, cell-based; details: dose 0.039-0.312 µM, time 10.0 day
[8] = molecular target: T2, Protein cereblon/Cyclin-dependent kinase 4 (Homo sapiens, UniProt P11802+Q96SW2); assay: PROTAC activity at CRBN/CDK4 in human NCI-H3122 cells assessed as degradation of CDK4 protein at 5 uM pretreated with palbociclib for 4 hrs followed by compound addition and measured after 24 hrs by Western blot analysis; format: cell-based
Target sequence in this assay (P11802 2-303 limits assumed): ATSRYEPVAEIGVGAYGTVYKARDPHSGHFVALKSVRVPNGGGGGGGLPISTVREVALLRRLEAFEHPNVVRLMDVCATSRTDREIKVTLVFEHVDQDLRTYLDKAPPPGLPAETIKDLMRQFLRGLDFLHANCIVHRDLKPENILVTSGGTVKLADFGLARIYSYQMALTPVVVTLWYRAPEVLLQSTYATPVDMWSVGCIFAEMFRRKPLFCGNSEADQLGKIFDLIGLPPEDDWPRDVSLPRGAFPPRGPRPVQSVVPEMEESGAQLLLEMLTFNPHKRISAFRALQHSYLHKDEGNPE
Target sequence in this assay (Q96SW2 whole entry partner): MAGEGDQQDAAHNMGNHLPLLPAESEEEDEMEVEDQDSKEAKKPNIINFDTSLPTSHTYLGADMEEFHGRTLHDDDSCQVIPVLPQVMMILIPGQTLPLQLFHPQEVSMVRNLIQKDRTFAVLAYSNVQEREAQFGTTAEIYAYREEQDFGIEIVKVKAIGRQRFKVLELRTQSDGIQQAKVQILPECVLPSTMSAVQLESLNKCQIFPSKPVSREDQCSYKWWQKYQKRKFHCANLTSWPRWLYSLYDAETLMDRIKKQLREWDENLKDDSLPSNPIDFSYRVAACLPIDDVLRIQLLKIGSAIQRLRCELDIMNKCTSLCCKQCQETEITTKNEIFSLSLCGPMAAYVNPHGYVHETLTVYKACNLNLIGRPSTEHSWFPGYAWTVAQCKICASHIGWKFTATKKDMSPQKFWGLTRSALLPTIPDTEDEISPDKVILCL

[9] = molecular target: T1, Protein cereblon/ALK tyrosine kinase receptor/Echinoderm microtubule-associated protein-like 4 (Homo sapiens); assay: PROTAC activity at CRBN/EML4-ALK in human NCI-H3122 cells assessed as downregulation of phosphorylated STAT3 level by Western blot analysis; format: cell-based
[10] = system: NCI-H3122; assay: Antitumor activity against human NCI-H3122 cells xenografted in BALB/c nude mouse assessed as reduction in tumor weight at 75 mg/kg, IG administered once daily for 18 days and measured after 12 hrs of last dose; format: functional, organism-based; details: time 444.0 hrs
[11] = molecular target: Protein cereblon/Cyclin-dependent kinase 6 (Homo sapiens) (UniProt Q00534+Q96SW2); assay: PROTAC activity at CRBN/CDK6 in human NCI-H2228 cells assessed as reduction in CDK6 protein level by Western blot analysis; format: cell-based
[12] = molecular target: T2, Protein cereblon/Cyclin-dependent kinase 4; assay: PROTAC activity at CRBN/CDK4 in human NCI-H3122 cells assessed as downregulation of phosphorylated Rb level by Western blot analysis; format: cell-based
Target sequence in this assay (P11802 2-303 limits assumed): as the sequence (P11802 2-303 limits assumed) above
Target sequence in this assay (Q96SW2 whole entry partner): as the sequence (Q96SW2 whole entry partner) above

[13] = molecular target: T2, Protein cereblon/Cyclin-dependent kinase 4; assay: PROTAC activity at CRBN/CDK4 in human NCI-H3122 cells assessed as induction of CDK4 degradation at 5 uM pretreated with MG132 for 4 hrs followed compound addition and measured after 24 hrs by Western blot analysis; format: cell-based
Target sequence in this assay (P11802 2-303 limits assumed): as the sequence (P11802 2-303 limits assumed) above
Target sequence in this assay (Q96SW2 whole entry partner): as the sequence (Q96SW2 whole entry partner) above

[14] = Toxicity in BALB/c nude mouse xenografted with human NCI-H3122 cells assessed as tolerance at 25 to 75 mg/kg, IG administered once daily for 18 days; format: organism-based; details: in vivo, po, 432 h, dose 25-75 mg/kg, time 18 day
[15] = system: NCI-H3122; assay: Cell cycle arrest in human NCI-H3122 cells assessed as accumulation of cells at S phase at 0.312 uM incubated for 24 hrs by propidium iodide staining based flow cytometric analysis (reference value: 29.94%); format: functional
[16] = system: NCI-H3122; assay: Induction of apoptosis in human NCI-H3122 cells assessed as necrotic cells at 1.25 uM incubated for 48 hrs by Annexin V-FITC/propidium iodide staining based flow cytometric analysis (reference value: 0.57%); format: functional
[17] = system: NCI-H3122; assay: Induction of apoptosis in human NCI-H3122 cells assessed as late apoptotic cells at 0.312 uM incubated for 48 hrs by Annexin V-FITC/propidium iodide staining based flow cytometric analysis (reference value: 3.06%); format: functional
[18] = molecular target: T1, Protein cereblon/ALK tyrosine kinase receptor/Echinoderm microtubule-associated protein-like 4 (Homo sapiens); assay: PROTAC activity at CRBN/EML4-ALK in human NCI-H3122 cells assessed as induction of EML4-ALK fusion protein degradation at 5 uM measured at 16 to 48 hrs by Western blot analysis; format: cell-based; details: time 16-48 hrs
[19] = molecular target: ALK tyrosine kinase receptor (Homo sapiens) (UniProt Q9UM73); assay: Inhibition of ALK (unknown origin) at 1 uM by LANCE Ultra TR-FRET assay relative to control
[20] = molecular target: T1, Protein cereblon/ALK tyrosine kinase receptor/Echinoderm microtubule-associated protein-like 4 (Homo sapiens); assay: PROTAC activity at CRBN/EML4-ALK in human NCI-H3122 cells assessed as reduction in EML4-ALK fusion protein level at 0.1 to 20 uM incubated for 24 hrs in presence of GSH by Western blot analysis; format: cell-based; details: dose 0.1-20 µM
[21] = system: NCI-H3122; assay: Cell cycle arrest in human NCI-H3122 cells assessed as G2/M phase cells at 1.25 uM incubated for 24 hrs by propidium iodide staining based flow cytometric analysis (reference value: 20.89%); format: functional
[22] = system: NCI-H3122; assay: Cell cycle arrest in human NCI-H3122 cells assessed as G2/M phase cells at 2.5 uM incubated for 24 hrs by propidium iodide staining based flow cytometric analysis (reference value: 20.89%); format: functional
[23] = molecular target: Cyclin-dependent kinase 6 (Homo sapiens) (UniProt Q00534); assay: Inhibition of CDK6 (unknown origin) at 1 uM by LANCE Ultra TR-FRET assay relative to control
[24] = molecular target: T2, Protein cereblon/Cyclin-dependent kinase 4; assay: PROTAC activity at CRBN/CDK4 in human NCI-H3122 cells assessed as reduction in CDK4 protein level at 5 uM incubated for 16 hrs followed by compound washout and measured after 8 hrs by Western blot analysis; format: cell-based
Target sequence in this assay (P11802 2-303 limits assumed): as the sequence (P11802 2-303 limits assumed) above
Target sequence in this assay (Q96SW2 whole entry partner): as the sequence (Q96SW2 whole entry partner) above

[25] = molecular target: T2, Protein cereblon/Cyclin-dependent kinase 4; assay: PROTAC activity at CRBN/CDK4 in human NCI-H3122 cells assessed as reduction in CDK4 protein level incubated for 24 hrs by Western blot analysis; format: cell-based
Target sequence in this assay (P11802 whole entry): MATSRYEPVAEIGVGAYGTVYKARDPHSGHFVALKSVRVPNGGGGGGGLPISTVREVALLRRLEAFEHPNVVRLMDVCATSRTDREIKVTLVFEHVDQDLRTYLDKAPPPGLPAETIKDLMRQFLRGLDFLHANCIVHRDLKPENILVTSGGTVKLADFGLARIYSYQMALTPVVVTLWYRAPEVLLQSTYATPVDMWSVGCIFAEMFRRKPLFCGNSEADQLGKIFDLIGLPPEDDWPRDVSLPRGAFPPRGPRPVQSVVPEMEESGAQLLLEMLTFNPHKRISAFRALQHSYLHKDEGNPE
Target sequence in this assay (Q96SW2 whole entry): as the sequence (Q96SW2 whole entry partner) above

[26] = system: NCI-H3122; assay: Cell cycle arrest in human NCI-H3122 cells assessed as accumulation of cells at S phase at 2.5 uM incubated for 24 hrs by propidium iodide staining based flow cytometric analysis (reference value: 29.94%); format: functional
[27] = Toxicity in BALB/c nude mouse xenografted with human NCI-H3122 cells assessed as effect on visceral kidney morphology at 75 mg/kg, IG administered once daily for 18 days and measured after 12 hrs of last dose by H and E staining based analysis; format: organism-based; details: in vivo, po, 444 h
[28] = system: NCI-H3122; assay: Cell cycle arrest in human NCI-H3122 cells assessed as accumulation of cells at S phase at 0.625 uM incubated for 24 hrs by propidium iodide staining based flow cytometric analysis (reference value: 29.94%); format: functional
[29] = system: NCI-H3122; assay: Induction of apoptosis in human NCI-H3122 cells assessed as late apoptotic cells at 0.625 uM incubated for 48 hrs by Annexin V-FITC/propidium iodide staining based flow cytometric analysis (reference value: 3.06%); format: functional

T1 sequence (Q96SW2 whole entry partner): as above
T1 sequence (Q9HC35 whole entry partner): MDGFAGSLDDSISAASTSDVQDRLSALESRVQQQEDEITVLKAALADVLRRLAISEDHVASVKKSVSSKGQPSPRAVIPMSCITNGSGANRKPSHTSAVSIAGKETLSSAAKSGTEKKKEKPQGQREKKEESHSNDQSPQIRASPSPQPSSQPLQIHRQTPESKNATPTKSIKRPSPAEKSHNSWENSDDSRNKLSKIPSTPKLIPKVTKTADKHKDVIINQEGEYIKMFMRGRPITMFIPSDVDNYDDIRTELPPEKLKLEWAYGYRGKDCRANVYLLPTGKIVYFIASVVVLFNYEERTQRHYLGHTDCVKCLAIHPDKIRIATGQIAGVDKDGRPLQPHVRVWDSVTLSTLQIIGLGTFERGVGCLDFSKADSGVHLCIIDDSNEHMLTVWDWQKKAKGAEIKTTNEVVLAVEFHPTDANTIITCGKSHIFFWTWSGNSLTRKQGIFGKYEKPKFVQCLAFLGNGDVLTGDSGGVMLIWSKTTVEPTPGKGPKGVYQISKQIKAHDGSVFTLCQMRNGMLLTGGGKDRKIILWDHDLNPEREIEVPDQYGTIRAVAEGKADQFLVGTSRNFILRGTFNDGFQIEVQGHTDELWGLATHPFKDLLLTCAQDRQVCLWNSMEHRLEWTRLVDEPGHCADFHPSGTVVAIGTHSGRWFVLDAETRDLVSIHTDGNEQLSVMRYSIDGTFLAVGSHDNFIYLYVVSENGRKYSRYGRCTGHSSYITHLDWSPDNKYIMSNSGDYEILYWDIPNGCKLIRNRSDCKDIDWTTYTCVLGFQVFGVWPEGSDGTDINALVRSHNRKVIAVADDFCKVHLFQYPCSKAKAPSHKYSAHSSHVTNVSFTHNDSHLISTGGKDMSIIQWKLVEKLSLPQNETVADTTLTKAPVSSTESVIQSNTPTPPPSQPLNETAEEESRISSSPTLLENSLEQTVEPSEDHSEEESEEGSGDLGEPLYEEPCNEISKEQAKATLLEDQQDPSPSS
T1 sequence (Q9UM73 19-1620 limits assumed): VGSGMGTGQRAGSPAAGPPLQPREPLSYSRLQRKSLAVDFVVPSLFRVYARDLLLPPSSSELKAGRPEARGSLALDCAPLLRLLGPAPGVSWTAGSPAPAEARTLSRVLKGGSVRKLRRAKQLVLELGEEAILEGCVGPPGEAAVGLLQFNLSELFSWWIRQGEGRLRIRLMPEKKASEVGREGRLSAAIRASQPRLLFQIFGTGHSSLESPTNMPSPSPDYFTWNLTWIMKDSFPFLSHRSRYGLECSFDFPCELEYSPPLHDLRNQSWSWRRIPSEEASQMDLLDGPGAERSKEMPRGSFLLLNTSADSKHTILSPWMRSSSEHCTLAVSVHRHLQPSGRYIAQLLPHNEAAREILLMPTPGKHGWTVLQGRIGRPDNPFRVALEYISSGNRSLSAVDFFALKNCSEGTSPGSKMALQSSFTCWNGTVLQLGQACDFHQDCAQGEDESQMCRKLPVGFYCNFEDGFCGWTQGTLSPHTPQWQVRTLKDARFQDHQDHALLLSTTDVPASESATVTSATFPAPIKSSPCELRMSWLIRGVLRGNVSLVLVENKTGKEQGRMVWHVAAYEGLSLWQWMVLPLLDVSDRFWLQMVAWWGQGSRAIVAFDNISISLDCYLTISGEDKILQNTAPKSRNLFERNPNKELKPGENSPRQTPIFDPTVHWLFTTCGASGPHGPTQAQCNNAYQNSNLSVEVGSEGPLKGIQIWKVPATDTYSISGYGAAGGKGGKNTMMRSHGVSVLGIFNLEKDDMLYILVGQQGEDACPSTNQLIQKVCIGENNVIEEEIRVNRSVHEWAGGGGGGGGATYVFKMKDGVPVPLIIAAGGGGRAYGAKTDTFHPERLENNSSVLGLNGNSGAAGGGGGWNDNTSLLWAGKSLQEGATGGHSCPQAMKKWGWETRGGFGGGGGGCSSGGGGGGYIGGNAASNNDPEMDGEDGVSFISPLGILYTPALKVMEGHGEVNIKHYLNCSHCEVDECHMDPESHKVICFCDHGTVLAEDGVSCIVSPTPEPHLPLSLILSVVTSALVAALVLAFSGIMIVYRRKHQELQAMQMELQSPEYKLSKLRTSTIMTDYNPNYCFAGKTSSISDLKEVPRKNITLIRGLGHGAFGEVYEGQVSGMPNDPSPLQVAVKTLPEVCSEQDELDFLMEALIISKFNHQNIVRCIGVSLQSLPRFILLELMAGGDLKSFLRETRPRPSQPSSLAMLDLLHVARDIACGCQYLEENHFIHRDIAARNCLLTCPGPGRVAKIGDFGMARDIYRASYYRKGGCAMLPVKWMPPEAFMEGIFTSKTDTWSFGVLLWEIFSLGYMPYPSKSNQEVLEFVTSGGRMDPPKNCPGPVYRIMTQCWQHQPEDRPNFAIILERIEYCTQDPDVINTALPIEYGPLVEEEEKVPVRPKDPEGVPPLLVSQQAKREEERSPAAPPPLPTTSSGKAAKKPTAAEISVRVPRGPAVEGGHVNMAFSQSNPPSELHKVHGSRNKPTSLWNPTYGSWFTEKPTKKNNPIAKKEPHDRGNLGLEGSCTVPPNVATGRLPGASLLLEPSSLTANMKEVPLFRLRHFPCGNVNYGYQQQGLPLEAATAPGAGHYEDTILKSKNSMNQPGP
Cyclin-dependent kinase 6 (Homo sapiens), sequence (Q00534 whole entry): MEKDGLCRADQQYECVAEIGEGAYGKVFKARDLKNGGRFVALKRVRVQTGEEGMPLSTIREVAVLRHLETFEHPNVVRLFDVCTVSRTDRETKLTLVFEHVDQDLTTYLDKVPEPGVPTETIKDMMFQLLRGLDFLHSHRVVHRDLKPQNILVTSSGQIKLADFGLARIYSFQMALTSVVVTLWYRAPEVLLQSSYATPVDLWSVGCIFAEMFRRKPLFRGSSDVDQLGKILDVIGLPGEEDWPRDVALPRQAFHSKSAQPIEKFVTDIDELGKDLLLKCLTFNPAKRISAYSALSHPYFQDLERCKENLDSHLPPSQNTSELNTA
ALK tyrosine kinase receptor (Homo sapiens), sequence (Q9UM73 19-1620 limits assumed): as the sequence (Q9UM73 19-1620 limits assumed) above
Protein cereblon/Cyclin-dependent kinase 6 (Homo sapiens), sequence (Q00534 whole entry, looked up): as the sequence (Q00534 whole entry) above
Protein cereblon/Cyclin-dependent kinase 6 (Homo sapiens), sequence (Q96SW2 whole entry, looked up): as the sequence (Q96SW2 whole entry partner) above

inhibition [2]: 92% | Activity [3]: Active | Activity [8]: inactive | Activity [9]: Active | Activity [11]: inactive | Activity [12]: Active | Activity [13]: inactive | Activity [18]: Active | inhibition [19]: 96.4% | Activity [20]: Active | inhibition [23]: 97.8% | Activity [24]: inactive | EC50 [25]: 3.69 µM
SMILES: CC(=O)c1c(C)c2cnc(Nc3ccc(N4CCN(CC(=O)NCCSSCCN(CC(=O)NCCNc5cccc6c5C(=O)N(C5CCC(=O)NC5=O)C6=O)C(=O)CCCCCCC(=O)N5CCC(c6cc(OC(C)C)c(Nc7ncc(Cl)c(Nc8ccccc8S(=O)(=O)C(C)C)n7)cc6C)CC5)CC4)cn3)nc2n(C2CCCC2)c1=O (centres undefined)
Activity [1]: Non-Toxic | Activity [4]: Non-Toxic | Activity [5]: 1.03% | Activity [6]: Non-Toxic | inhibition [7]: Dose-Dependent Effect | Activity [10]: Active | Activity [14]: Non-Toxic | Activity [15]: 17.52% | Activity [16]: 1.91% | Activity [17]: 5.85% | Activity [21]: 16.61% | Activity [22]: 11.78% | Activity [26]: 6.04% | Activity [27]: Non-Toxic | Activity [28]: 14.44% | Activity [29]: 8.32%

From ChEMBL document CHEMBL5321200, “Discovery of the GSH responsive "Y-PROTACs" targeting ALK and CDK4/6 as a potential treatment for cancer” (Eur J Med Chem, 2023)
